The structures appear in SMILES notation.

As a reminder, the melting point is the temperature of the solid-liquid transition. `COc1cc(COc2nn(-c3ccccc3)cc2CC(=O)N2CCOCC2)ccc1OCc1nc(-c2ccco2)oc1C` [Example 74, 4-[3-[4-[2-(2-furyl)-5-methyl1–4-oxazolylmethoxy]-3-methoxybenzyloxy]-1-phenyl-1H-pyrazol-4-yl]acetylmorpholine] came in with a melting point of 132 to 133 °C.

`Cc1oc(-c2ccccc2)nc1COc1ccc(COc2cc(CCC(=O)O)n(-c3ccccc3)n2)cc1` [Example 81, 3-[3-[4-(5-methyl-2-phenyl-4-oxazolylmethoxy)benzyloxy]-1-phenyl-1H-pyrazol-5-yl]propionic acid] registered a melting point of 154 to 155 °C.

For the compound `COC(=O)Cc1cn(-c2ccccc2)nc1OCc1ccc(OCc2nc(-c3ccccc3)oc2C)c(OC)c1` [Example 51, methyl [3-[3-methoxy-4-(5-methyl-2-phenyl-4-oxazolylmethoxy)benzyloxy]-1-phenyl-1H-pyrazol-4-yl]acetate], the melting point lay within 107 to 108 °C.

`Cc1oc(-c2ccccc2)nc1CCOc1ccc(COc2nn(C)cc2CC(=O)O)cc1` [Example 22, [1-methyl-3-[4-[2-(5-methyl-2-phenyl-4-oxazolyl)ethoxy]benzyloxy]-1H-pyrazol-4-yl]acetic acid] displayed a melting point of 148 to 149 °C.

The compound `Cc1oc(-c2ccccc2)nc1COc1ccc(CSc2nc(CCC(=O)O)n[nH]2)cc1` [Example 18, 3-[5-[4-(5-methyl-2-phenyl-4-oxazolylmethoxy)benzylthio]-1H-1,2,4-triazol-3-yl]propionic acid] gave a melting point of 170 to 171 °C.

In turn, `Cc1oc(-c2ccccc2)nc1COc1ccc(CN(C)c2nc(-c3ccccc3)c(CCC(=O)O)s2)cc1.Cl` returned a melting point of 106 to 108 °C.

On to `Cc1oc(-c2ccccc2)nc1COc1ccc(COc2nn(Cc3ccccc3)cc2CCC(=O)O)cc1` [Example 20, 3-[1-benzyl-3-[-4-(5-methyl-2-phenyl-4-oxazolylmethoxy)benzyloxy]-1H-pyrazol-4-yl]propionic acid], for which the melting point is 125 to 126 °C.

`Cc1oc(-c2ccccc2)nc1COc1ccc(COc2nn(Cc3ccccc3)cc2CCC(=O)O)cn1` [Example 48, 3-[1-benzyl-3-[6-(5-methyl-2-phenyl-4-oxazolylmethoxy)-3-pyridylmethoxy]-1H-pyrazol-4-yl]propionic acid] gave a melting point of 130 to 131 °C.

`COc1cc(COc2cc(CC(=O)O)n(-c3ccccc3)n2)ccc1OCc1nc(-c2ccco2)oc1C` [Example 77, [3-[4-[2-(2-furyl)-5-methyl-4-oxazolylmethoxy]-3-methoxybenzyloxy]-1-phenyl-1H-pyrazol-5-yl]acetic acid]: the melting point is 145 to 146 °C (dec.).

`Cn1cc(CC(=O)O)c(OCc2ccc(OCc3csc(-c4ccccc4)n3)nc2)n1` [Example 34, [1-methyl-3-[6-(2-phenyl-4-thiazolylmethoxy)-3-pyridylmethoxy]-1H-pyrazol-4-yl]acetic acid] returned a melting point of 156 to 157 °C.

`Cc1oc(-c2ccco2)nc1COc1ccc(Cc2nc(CCC(=O)O)c(-c3ccccc3)o2)cc1` [Example 67, 3-[2-[4-[2-(2-furyl)-5-methyl-4-oxazolylmethoxy]benzyl]-5-phenyl-4-oxazolyl]propionic acid]: the melting point was 154 to 155 °C.

In the case of `COc1cc(COc2nn(-c3ccccc3)cc2CCC(=O)O)ccc1OCc1nc(-c2ccco2)oc1C` [Example 56, 3-[3-[4-[2-(2-furyl)-5-methyl-4-oxazolylmethoxy]-3-methoxybenzyloxy]-1-phenyl-1H-pyrazol-4-yl]propionic acid], the melting point was 161 to 162 °C.

Turning to `COc1cc(COc2nn(-c3ccccc3)cc2CC(=O)O)ccc1OCc1nc(-c2ccco2)oc1C` [Example 73, [3-[4-[2-(2-furyl)-5-methyl-4-oxazolylmethoxy]-3-methoxybenzyloxy]-1-phenyl-1H-pyrazol-4-yl]acetic acid], the melting point is 179 to 180 °C.

Take `Cc1oc(-c2ccccc2)nc1COc1cccc(COc2cc(CCC(=O)O)n(-c3ccccc3)n2)c1` [Example 83, 3-[3-[3-(5-methyl-2-phenyl-4-oxazolylmethoxy)benzyloxy]-1-phenyl-1H-pyrazol-5-yl]propionic acid]: the melting point fell in the range of 137 to 138 °C.

Compound `COc1cc(COc2cc(CCC(=O)O)n(-c3ccccc3)n2)ccc1OCc1nc(-c2ccccc2)oc1C` [Example 79, 3-[3-[3-methoxy-4-(5-methyl-2-phenyl-4-oxazolylmethoxy)benzyloxy]-1-phenyl-1H-pyrazol-5-yl]propionic acid] had a melting point of 157 to 158 °C.

Compound `Cc1oc(-c2ccccc2)nc1COc1cc(COc2nn(C)cc2CC(=O)O)on1` [Example 30, [1-methyl-3-[3-(5-methyl-2-phenyl-4-oxazolylmethoxy)-5-isoxazolylmethoxy]-1H-pyrazol-4-yl]acetic acid] returned a melting point of 149 to 150 °C.

In the case of `Cc1oc(-c2ccccc2)nc1COc1ccc(CCc2oc(-c3ccccc3)nc2CCC(=O)O)cc1` [Example 65, 3-[5-[2-[4-(5-methyl-2-phenyl-4-oxazolyl)methoxyphenyl]ethyl]-2-phenyl-4-oxazolyl]propionic acid], the melting point was 110 to 111 °C.

In turn, `COC(=O)Cc1cn(-c2ccccc2)nc1OCc1ccc(OCc2nc(-c3ccccc3)oc2C)nc1` [Example 53, methyl [3-[6-(5-methyl-2-phenyl-4-oxazolylmethoxy)-3-pyridylmethoxy]-1-phenyl-1H-pyrazol-4-yl]acetate] returned a melting point of 96 to 97 °C.

As for `Cc1sc(-c2ccccc2)nc1COc1ccc(COc2nn(C)cc2CC(=O)O)cn1` [Example 36, [1-methyl-3-[6-(5-methyl-2-phenyl-4-thiazolylmethoxy)-3-pyridylmethoxy]-1H-pyrazol-4-yl]acetic acid], the melting point is 140 to 141 °C.

Compound `COc1cc(COc2nn(C)cc2CC(=O)O)ccc1OCc1nc(-c2ccccc2)oc1C` [Example 42, [3-[3-methoxy-4-(5-methyl-2-phenyl-4-oxazolylmethoxy)benzyloxy]-1-methyl-1H-pyrazol-4-yl]acetic acid] displayed a melting point of 153 to 154 °C.

The compound `Cc1oc(-c2ccccc2)nc1COc1cc(COc2nn(C)cc2CC(=O)O)ccn1` [Example 28, [1-methyl-3-[2-(5-methyl-2-phenyl-4-oxazolylmethoxy)-4-pyridylmethoxy]-1H-pyrazol-4-yl]acetic acid] yielded a melting point of 126 to 127 °C.

As for `Cn1cc(CC(=O)O)c(OCc2cc(OCc3ccc4ccccc4n3)no2)n1` [Example 32, [1-methyl-3-[3-(2-quinolylmethoxy)-5-isoxazolylmethoxy]-1H-pyrazol-4-yl]acetic acid], the melting point lay in the range of 124 to 125 °C.

For `Cc1oc(-c2ccccc2)nc1COc1ccc(Sc2nc(CC(=O)O)cs2)cc1` [Example 19, [2-[4-(5-methyl-2-phenyl-4-oxazolylmethoxy)phenylthio]-4-thiazolyl]acetic acid], the melting point was in the range of 180 to 181 °C.

In turn, `Cc1oc(-c2ccco2)nc1COc1ccc(Cc2nc(-c3ccccc3)c(CCC(=O)O)o2)cc1` [Example 69, 3-[2-[4-[2-(2-furyl)-5-methyl-4-oxazolylmethoxy]benzyl]-4-phenyl-5-oxazolyl]propionic acid] registered a melting point of 74 to 76 °C.

For the origin of these results see patent US7241785B2, “Five-membered heterocyclic alkanoic acid derivative” (Takeda Pharmaceutical Company Limited, priority 2001, dated 2007).
